The values that follow come from PubChem BioAssay (NCI).

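Values below derive from 48-hour exposures of cells grown in 96-well plates, with endpoints linearly interpolated between the two concentrations bracketing the appropriate inhibition level. The concentration for 50% growth inhibition is given as GI50. TGI: total growth inhibition.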

Test in all cases: inhibition of tumour cell growth, NCI panel, 48 h
Assay [1] relates to HOP-62 NSCLC.
For assay [2], the system named is IGROV1 ovarian.
For assay [3], the system named is K-562 leukemia.
Assay [4] has as its system NCI-H226 lung.
Assay [5] has as its system NCI/ADR-RES ovarian.
Assay [6] deals with SK-OV-3 ovarian.
Assay [7] has as its system 786-0 renal.

With `COc1cc(/C(=C2/O[C@@H]([C@H]3COC(C)(C)O3)[C@H]3OC(C)(C)O[C@@H]23)c2ccc3c(c2)OCO3)cc(OC)c1OC`, the GI50 in assay [1], in assay [2], in assay [3], in assay [4], in assay [5] and in assay [6] was greater than 25 µM each time. Moreover, the TGI in assay [1], in assay [2], in assay [3], in assay [4], in assay [5] and in assay [6] was greater than 25 µM in each case.
Consider `O=C(NNS(=O)(=O)c1ccccc1)c1csc(NC(=S)NC2CCCCC2)n1`, for which the TGI in assay [7] is 32.4 µM; in assay [1] it was greater than 100 µM; in assay [2] it was 85.1 µM; in assay [3] it was greater than 100 µM; in assay [4], greater than 100 µM; in assay [5], greater than 100 µM. This compound registered a TGI in assay [6] greater than 100 µM.
Turning to `CCOC(=O)C(NC(=O)CC)(Nc1ccc(S(=O)(=O)Nc2ccc(OC)nn2)cc1)C(F)(F)F` (stereo not given), the TGI in assay [7], in assay [1], in assay [2], in assay [3], in assay [4] and in assay [5] was greater than 100 µM in each case. Also, in assay [6], the TGI was greater than 100 µM.
For the compound `CCCCOc1ccc2c(c1)CC[C@@H]1[C@@H]2CC[C@]2(C)C(=O)N(CCCC)C(=O)C[C@@H]12`, the TGI in assay [1], in assay [2], in assay [3], in assay [4], in assay [5] and in assay [6] was greater than 100 µM throughout.
As to `O=C1c2cccnc2-c2nccc3c2c1nc1ccc(Br)cc13`, the TGI in assay [7] stood at 0.0986 µM; in assay [1], 0.194 µM; in assay [2] it was 0.143 µM; in assay [3], 0.331 µM; in assay [4], 0.0639 µM; in assay [5], 0.176 µM. In assay [6], this compound showed a TGI of 0.389 µM.
For `O=C1c2cc3c(cc2CC1Cc1ccc2c(c1)CCC2)CCC3` (stereo not given), the TGI is greater than 100 µM in assay [1]; greater than 100 µM in assay [2]; greater than 100 µM in assay [3]; 65 µM in assay [4]; greater than 100 µM in assay [5]; greater than 100 µM in assay [6].
In the case of `O=S(c1ccc(Cl)cc1)c1ccccc1C1=NCCN1` (stereo not given), the TGI in assay [7], in assay [1], in assay [2], in assay [3], in assay [4] and in assay [5] was greater than 100 µM each time. The same compound registered a TGI in assay [6] greater than 100 µM.
In the case of `O=C1CCCCN1C(=O)c1ccc([N+](=O)[O-])cc1`, the TGI in assay [7], in assay [1], in assay [2], in assay [3], in assay [4] and in assay [5] was greater than 100 µM each time.
Turning to `CC1C(C#N)(C#N)C(C#N)=C(N)C1(C)[N+](=O)[O-]` (stereo not given), the TGI in assay [7], in assay [1], in assay [2], in assay [3], in assay [4] and in assay [5] was greater than 100 µM throughout. Further, in assay [6], the TGI is greater than 100 µM.
Consider `CCN(CC)C1Oc2cc3c(cc2C(c2cccc(OC)c2O)C1C)OCO3` (stereo not given), for which the TGI was 26.3 µM in assay [7]; 21.3 µM in assay [1]; greater than 56 µM in assay [2]; greater than 100 µM in assay [3]; 13.3 µM in assay [4]; 53.8 µM in assay [5]. Further, in assay [6], the TGI is greater than 61.3 µM.
As to `CCC(=O)N1C(=O)C(CC)(CC)C(=O)N1C(=O)CC`, the TGI in assay [7], in assay [1], in assay [2], in assay [3], in assay [4] and in assay [5] was greater than 100 µM throughout. The same compound returned a TGI in assay [6] greater than 100 µM.
For the compound `CC(C)=CCC[C@@H](C)C1=CC(=O)C(C)=C(O)C1=O`, the TGI in assay [7] amounted to 17.5 µM; in assay [1], 25.7 µM; in assay [2] it was 23.2 µM; in assay [3], 5.79 µM; in assay [4], 22.8 µM; in assay [5] it was 11.3 µM. Moreover, in assay [6], the TGI was determined as 31.8 µM.
In the case of `CS(=O)(=O)OCC1CCCCCCCCCCC12SCCCS2` (stereo not given), the TGI in assay [7], in assay [1], in assay [2], in assay [3], in assay [4] and in assay [5] was greater than 100 µM throughout. The TGI in assay [6] was greater than 100 µM.
On to `Cc1ccc2c(=O)cc(Cc3csc4ccccc34)[nH]c2n1`, for which the TGI is greater than 100 µM in assay [7]; greater than 100 µM in assay [1]; 30.9 µM in assay [2]; greater than 100 µM in assay [3]; 85.8 µM in assay [4]; 52.4 µM in assay [5]. This compound also showed a TGI in assay [6] greater than 100 µM.
Take `COC1=CC(=O)c2nc3ccccc3c3ccnc1c23`: the TGI was greater than 48.7 µM in assay [7]; greater than 44.8 µM in assay [1]; 25.1 µM in assay [2]; greater than 100 µM in assay [3]; 33 µM in assay [4]; 51.3 µM in assay [5]. The compound also returned a TGI in assay [6] greater than 100 µM.
Turning to `O=C(c1ccccc1O)c1cc(-c2ncc3c(=O)c4ccccc4oc3n2)c(-c2ccccc2O)[nH]c1=O`, the TGI in assay [1] was 52.6 µM; in assay [2], greater than 70.1 µM; in assay [3], 75.1 µM; in assay [4] it was 32.7 µM; in assay [5], greater than 87.6 µM; in assay [6] it was 85.2 µM.
Regarding `O=Cc1c(Br)[nH]c2ccccc12`, the TGI in assay [1], in assay [2], in assay [3], in assay [4], in assay [5] and in assay [6] was greater than 100 µM each time.
As for `Cc1cc2oc3c(ccc(=O)n3C)c(=O)c2c(C)c1Cl`, the TGI in assay [1], in assay [2], in assay [3], in assay [4], in assay [5] and in assay [6] was greater than 100 µM throughout.
